Paper PMC11149885 (PLOS ONE, 2024)
Values joined by “and” are separate entries in the source; they are usually repeats but may differ in a detail not shown here. Identical values can stand only once. Like-named read-outs stand apart in the source and are kept apart here.

Key:
TIE2 = TIE2 (Homo sapiens, UniProt Q02763); assay: Ten-dose IC50 measurement
VEGFR2 = target: T1, VEGFR2 (Homo sapiens, UniProt P35968); assay: Ten-dose IC50 measurement; type: biochemical; settings: 10μM ATP
T1 construct: purchased Millipore Corporation (Dundee, Scotland) or Reaction Biology Corporation (contract assay)

[1] = tested on: VEGF-induced angiogenesis on the CAM; assay: Gelatin sponge chick chorioallantoic membrane (CAM) assay
[2] = 634 ug, cited from earlier work

T1 sequence (P35968 20-1356): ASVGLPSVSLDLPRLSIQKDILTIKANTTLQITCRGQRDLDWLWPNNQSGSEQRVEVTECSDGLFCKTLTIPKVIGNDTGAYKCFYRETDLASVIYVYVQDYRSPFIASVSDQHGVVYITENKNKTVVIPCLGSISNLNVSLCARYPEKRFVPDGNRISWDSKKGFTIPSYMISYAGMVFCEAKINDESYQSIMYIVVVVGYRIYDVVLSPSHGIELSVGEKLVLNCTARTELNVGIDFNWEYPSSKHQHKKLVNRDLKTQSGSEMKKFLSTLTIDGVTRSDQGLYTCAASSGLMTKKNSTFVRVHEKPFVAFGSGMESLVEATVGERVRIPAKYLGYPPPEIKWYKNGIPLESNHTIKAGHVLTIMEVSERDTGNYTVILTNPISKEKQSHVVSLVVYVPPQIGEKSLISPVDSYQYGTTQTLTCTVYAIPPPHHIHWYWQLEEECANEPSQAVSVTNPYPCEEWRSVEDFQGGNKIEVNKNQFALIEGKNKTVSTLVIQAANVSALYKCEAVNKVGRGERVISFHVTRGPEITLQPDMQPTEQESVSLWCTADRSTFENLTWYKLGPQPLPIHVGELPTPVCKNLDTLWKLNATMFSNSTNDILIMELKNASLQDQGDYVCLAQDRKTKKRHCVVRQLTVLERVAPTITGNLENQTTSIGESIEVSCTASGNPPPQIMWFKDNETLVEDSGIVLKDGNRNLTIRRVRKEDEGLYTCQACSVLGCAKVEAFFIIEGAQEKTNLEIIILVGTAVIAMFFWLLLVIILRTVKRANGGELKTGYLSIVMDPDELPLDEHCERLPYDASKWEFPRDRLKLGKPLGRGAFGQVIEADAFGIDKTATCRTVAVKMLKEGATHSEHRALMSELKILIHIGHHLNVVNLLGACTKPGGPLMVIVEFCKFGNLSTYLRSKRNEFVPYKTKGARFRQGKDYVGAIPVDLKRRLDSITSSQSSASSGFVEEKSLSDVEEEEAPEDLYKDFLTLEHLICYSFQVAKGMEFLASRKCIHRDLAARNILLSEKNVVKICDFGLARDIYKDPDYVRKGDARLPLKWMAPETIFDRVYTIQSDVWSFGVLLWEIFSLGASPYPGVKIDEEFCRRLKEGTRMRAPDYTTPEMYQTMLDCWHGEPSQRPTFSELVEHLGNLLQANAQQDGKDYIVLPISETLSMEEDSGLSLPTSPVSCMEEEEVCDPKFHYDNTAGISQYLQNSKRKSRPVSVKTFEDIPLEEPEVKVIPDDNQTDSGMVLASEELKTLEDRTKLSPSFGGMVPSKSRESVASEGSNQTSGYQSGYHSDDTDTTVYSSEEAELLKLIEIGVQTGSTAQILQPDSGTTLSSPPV
Sequence of TIE2 (Q02763 23-1124): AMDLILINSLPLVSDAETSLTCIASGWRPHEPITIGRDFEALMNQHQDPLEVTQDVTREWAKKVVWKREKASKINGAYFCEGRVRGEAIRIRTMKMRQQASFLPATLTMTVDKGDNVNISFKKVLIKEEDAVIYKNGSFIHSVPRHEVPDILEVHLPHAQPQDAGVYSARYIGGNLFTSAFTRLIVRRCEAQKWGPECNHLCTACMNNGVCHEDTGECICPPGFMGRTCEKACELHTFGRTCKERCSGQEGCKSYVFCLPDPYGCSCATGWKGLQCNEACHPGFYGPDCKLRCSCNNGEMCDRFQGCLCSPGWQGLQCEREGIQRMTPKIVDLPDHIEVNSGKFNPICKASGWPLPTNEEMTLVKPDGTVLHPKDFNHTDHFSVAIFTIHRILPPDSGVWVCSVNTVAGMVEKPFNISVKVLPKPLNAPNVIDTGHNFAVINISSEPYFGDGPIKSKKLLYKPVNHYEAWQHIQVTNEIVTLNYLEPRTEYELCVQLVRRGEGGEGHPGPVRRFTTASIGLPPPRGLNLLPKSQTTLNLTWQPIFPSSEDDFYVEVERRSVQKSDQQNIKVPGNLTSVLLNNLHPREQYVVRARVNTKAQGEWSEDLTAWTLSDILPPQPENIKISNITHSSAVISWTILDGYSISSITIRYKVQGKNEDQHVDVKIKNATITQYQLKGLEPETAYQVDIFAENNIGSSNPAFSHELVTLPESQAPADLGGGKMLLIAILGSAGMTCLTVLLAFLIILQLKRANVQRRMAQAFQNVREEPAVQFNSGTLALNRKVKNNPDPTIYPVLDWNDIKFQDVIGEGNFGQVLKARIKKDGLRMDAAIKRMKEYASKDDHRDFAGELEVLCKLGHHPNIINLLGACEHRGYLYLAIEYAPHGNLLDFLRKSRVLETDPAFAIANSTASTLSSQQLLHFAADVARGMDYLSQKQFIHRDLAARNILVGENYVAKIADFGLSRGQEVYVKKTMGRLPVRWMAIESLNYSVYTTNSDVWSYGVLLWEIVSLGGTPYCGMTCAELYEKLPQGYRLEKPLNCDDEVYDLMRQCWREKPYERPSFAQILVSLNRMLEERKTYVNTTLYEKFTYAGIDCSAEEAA

Which results are given for `Cc1[nH]c(/C=C2\C(=O)Nc3ccc(F)cc32)c(C)c1C(=O)N[C@H]1CCN(C(=O)N(C)C)C1` [Vorolanib]?
%Activity TIE2 (TIE2; 1.00E-05 M TKI, 10μM ATP): 69.30%; %Activity TIE2 (TIE2; 1.11E-06 M TKI, 10μM ATP): 100.16%; %Activity TIE2 (TIE2; 1.37E-08 M TKI, 10μM ATP): 100.50%; %Activity TIE2 (TIE2; 1.52E-09 M TKI, 10μM ATP): 103.72%; %Activity TIE2 (TIE2; 3.33E-06 M TKI, 10μM ATP): 83.50%; %Activity TIE2 (TIE2; 3.70E-07 M TKI, 10μM ATP): 100.13%; %Activity TIE2 (TIE2; 4.12E-08 M TKI, 10μM ATP): 99.77%; %Activity TIE2 (TIE2; 4.57E-09 M TKI, 10μM ATP): 100.65%; %Activity TIE2 (TIE2; 5.08E-10 M TKI, 10μM ATP): 98.18%; IC50 (TIE2; IC50 TIE2, 10μM ATP, S1 Dataset): 20.7 µM; IC50 (TIE2; TIE2 IC50, determined by Reaction Biology (US), 10μM ATP): 20.7 µM; IC50 (VEGFR2; S1 Dataset, read-out: IC50 VEGFR2): 7.61e-08 M; %Activity VEGFR2 (VEGFR2; 1.00E-05 M TKI): 7.53%; %Activity VEGFR2 (VEGFR2; 1.11E-06 M TKI): 15.96%; %Activity VEGFR2 (VEGFR2; 1.23E-07 M TKI): 39.66%; %Activity VEGFR2 (VEGFR2; 1.37E-08 M TKI): 76.92%; %Activity VEGFR2 (VEGFR2; 1.52E-09 M TKI): 90.70%; %Activity VEGFR2 (VEGFR2; 3.33E-06 M TKI): 8.61%; %Activity VEGFR2 (VEGFR2; 3.70E-07 M TKI): 24.16%; %Activity VEGFR2 (VEGFR2; 4.12E-08 M TKI): 62.72%; %Activity VEGFR2 (VEGFR2; 4.57E-09 M TKI): 90.18%; %Activity VEGFR2 (VEGFR2; 5.08E-10 M TKI): 99.81%; IC50 (VEGFR2; Fig 3A inset, unit inferred, plot axes in (M), read-out: Compound IC50 data for VEGFR-2: IC50): 7.61e-08 M; Angiogenesis - Vessel number, Mean ([1]; TKI at 200 x VEGFR2 IC50): 8.7; Angiogenesis - Vessel number, individual egg ([1]; TKI at 200 x VEGFR2 IC50, one value per egg): 1.33 and 10.33 and 14 and 8.33 and 9.33 and 9; reduction of the number of blood vessels perfusing the sponges vs negative control ([1]; TKI at 200× VEGFR2 IC50 dose): 37.1%; reduction of the number of blood vessels perfusing the sponges vs negative control ([1]; TKI at VEGFR2 IC50 dose): 39.9%; Angiogenesis - Vessel thickness score, Mean ([1]; TKI at VEGFR2 IC50 dose, score 0-3): 1.2; Angiogenesis - Vessel thickness score, individual egg ([1]; TKI at VEGFR2 IC50 dose, score 0-3, one value per egg): 0 and 1.67 and 1.33 and 1 and 0.67 and 2.33; Concentration, choroid ([2]; 2 days post-treatment): 124 µg/g; Concentration, choroid ([2]; 14 days post-treatment): 52 µg/g; Concentration, choroid ([2]; 29 days post-treatment): 74 µg/g; Concentration, choroid ([2]; 62 days post-treatment): 206 µg/g; Concentration, choroid ([2]; 120 days post-treatment): 109 µg/g; Concentration, choroid ([2]; 182 days post-treatment): 200 µg/g; Concentration, choroid ([2]; 240 days post-treatment): 293 µg/g; Concentration, retina ([2]; 2 days post-treatment): 208.6 µg/g; Concentration, retina ([2]; 14 days post-treatment): 223.3 µg/g; Concentration, retina ([2]; 29 days post-treatment): 143.1 µg/g; Concentration, retina ([2]; 62 days post-treatment): 136.3 µg/g; Concentration, retina ([2]; 120 days post-treatment): 434.5 µg/g; Concentration, retina ([2]; 182 days post-treatment): 243.2 µg/g; Concentration, retina ([2]; 240 days post-treatment): 122.5 µg/g
